Measured values from BindingDB's records for doi:10.7270/Q2FX7CM7 (n/a, 1993).

Target: DNA gyrase A/A/B/B tetramer (Escherichia coli (strain K12), UniProt P0AES4+P0AES6)
Assay: In vitro antibacterial activity was determined as inhibitory concentration causing 50% DNA-gyrase supercoiling inhibition (SCI)

For C[C@H]1COc2c(N3CCN(C)CC3)c(F)cc3c(=O)c(C(=O)O)cn1c23 [9-fluoro-3-methyl-10-(4-methylpiperazin-1-yl)-7-oxo-2,3-dihydro-7H-[1,4]oxazino[2,3,4-ij]quinoline-6-carboxylic acid], the IC50 was 4.98 µM.
